Experimental data published in ChEMBL document CHEMBL1201862, “PubChem BioAssay data set” (2004).
Active and inactive are the calls of the source. Rule as the data show it, for most assays here: actives have a measured EC50 and inactives only a lower limit.

Tested on: Streptococcus
Test: Group A Streptococcus viability loss, dose response, counter-screen for streptokinase expression inhibitor project, luminescence, BacTiterGlo (AID 1915);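 also: potency for reduction of bacterial viability or growth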
Type: functional, organism-based
Conditions: not given
With `Cc1cccc(OCC(=O)Nc2ccncc2)c1` the EC50 was > 150 µM (not active).
For `O=C(CN1C(=O)COc2ccc(S(=O)(=O)N3CCCCC3)cc21)NCc1ccc(F)cc1`, the EC50 was > 150 µM (not active).
In the case of `CC/C(=N\NC(=S)Nc1cccc(C)c1)c1ccccc1`, the EC50 is reported as > 50 µM (not active).
With `COc1ccc2c(c1)c(CC(=O)Nc1cccc(S(N)(=O)=O)c1)c(C)n2C(=O)c1ccc(Cl)cc1` the EC50 was > 50 µM (not active).
In the case of `O=C(NCc1ccc2c(c1)OCO2)C(=O)NCC1OCCN1S(=O)(=O)c1ccc(Br)cc1` (centres undefined), the EC50 is reported as > 150 µM (not active).
For `Nc1[nH]nc(C2CC2)c1N=Nc1ccc(Cl)c(Cl)c1`, the EC50 was > 150 µM (not active).
With `COc1ccc(/C=C/C(=O)NC(=S)NNC(=O)c2ccco2)cc1OC` the EC50 was 25.4 µM (active).
With `CC(C)(O)c1[nH]c2cc(F)ccc2c1C(C)(C)O` the EC50 was 8.02 µM (active).
In the case of `COC(=O)[C@H]1[C@H](CCc2ccccc2)NC(=O)N(Cc2ccccc2)[C@@H]1C`, the EC50 is reported as > 150 µM (not active).
In the case of `Nc1nc(NCc2ccco2)nc(N2CCCCCC2)c1[N+](=O)[O-]`, the EC50 is reported as 7.75 µM (active).
With `O=C(Nc1nnc(-c2ccc(Br)cc2)o1)c1cccc(N2C(=O)CCC2=O)c1` the EC50 was 14.1 µM (active).
With `COc1cccc(/C=N/n2c(N)nc3ccccc32)c1OC` the EC50 was > 150 µM (not active).
For `COC(=O)C1(C(C[N+](=O)[O-])c2ccc(C)cc2)C(=O)NCC1c1ccco1` (centres undefined), the EC50 was 76.6 µM (active).
In the case of `C/C(=N/NS(=O)(=O)c1ccc(Cl)cc1)c1cccc(NC(=O)c2ccc(Cl)cc2Cl)c1`, the EC50 is reported as 47.6 µM (active).
For `COc1cccc(C(=O)N2C(C(=O)O)CSC2c2ccccc2Cl)c1` (centres undefined), the EC50 was > 150 µM (not active).
With `Cc1cc(C)n(-c2nc(SCC(=O)O)c3c4c(sc3n2)CCCC4)n1` the EC50 was > 150 µM (not active).
For `Cc1ccccc1N1CCN(C(=O)CCN2C(=O)c3ccccc3C2=O)CC1`, the EC50 was > 150 µM (not active).

Tested on: not listed separately
Test: HEp-2 cell cytotoxicity, dose response, cytotoxicity control for RSV inhibitor project, HTS (AID 2410)
Type: functional
Conditions: human respiratory syncytial virus
In the case of `Nc1[nH]nc(C2CC2)c1N=Nc1ccc(Cl)c(Cl)c1`, the CC50 is reported as 17.5 µM (active).

Target: T1, Streptokinase A (Streptococcus pyogenes serotype M1, UniProt P10520)
T1 sequence (P10520 whole entry): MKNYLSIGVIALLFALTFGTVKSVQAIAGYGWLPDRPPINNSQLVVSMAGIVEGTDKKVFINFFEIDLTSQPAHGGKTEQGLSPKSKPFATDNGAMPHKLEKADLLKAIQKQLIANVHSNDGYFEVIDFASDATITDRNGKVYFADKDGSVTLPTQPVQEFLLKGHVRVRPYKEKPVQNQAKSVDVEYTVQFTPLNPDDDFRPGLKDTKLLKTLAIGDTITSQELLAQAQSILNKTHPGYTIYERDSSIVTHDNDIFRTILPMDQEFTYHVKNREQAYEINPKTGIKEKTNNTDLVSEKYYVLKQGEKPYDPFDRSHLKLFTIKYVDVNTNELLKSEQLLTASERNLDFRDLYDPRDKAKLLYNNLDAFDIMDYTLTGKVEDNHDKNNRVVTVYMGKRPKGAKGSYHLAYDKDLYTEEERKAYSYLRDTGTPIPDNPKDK
Test: S. pyogenes streptokinase expression inhibitors, potency, dose response, plasminogen activation absorbance, OD405 (AID 1914);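 also: secreted streptokinase activity via plasminogen activation per viability signal from cell pellet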
Type: functional, Streptococcus pyogenes M1 GAS
Conditions: not given
For `Cc1cccc(OCC(=O)Nc2ccncc2)c1`, the EC50 was > 150 µM (not active).
In the case of `O=C(CN1C(=O)COc2ccc(S(=O)(=O)N3CCCCC3)cc21)NCc1ccc(F)cc1`, the EC50 is reported as > 150 µM (not active).
With `CC/C(=N\NC(=S)Nc1cccc(C)c1)c1ccccc1` the EC50 was 21.3 µM (active).
With `COc1ccc2c(c1)c(CC(=O)Nc1cccc(S(N)(=O)=O)c1)c(C)n2C(=O)c1ccc(Cl)cc1` the EC50 was > 150 µM (not active).
In the case of `O=C(NCc1ccc2c(c1)OCO2)C(=O)NCC1OCCN1S(=O)(=O)c1ccc(Br)cc1` (centres undefined), the EC50 is reported as > 150 µM (inconclusive).
For `Nc1[nH]nc(C2CC2)c1N=Nc1ccc(Cl)c(Cl)c1`, the EC50 was 17 µM (active).
In the case of `COc1ccc(/C=C/C(=O)NC(=S)NNC(=O)c2ccco2)cc1OC`, the EC50 is reported as > 150 µM (not active).
For `CC(C)(O)c1[nH]c2cc(F)ccc2c1C(C)(C)O`, the EC50 was > 150 µM (not active).
For `COC(=O)[C@H]1[C@H](CCc2ccccc2)NC(=O)N(Cc2ccccc2)[C@@H]1C`, the EC50 was > 150 µM (not active).
In the case of `Nc1nc(NCc2ccco2)nc(N2CCCCCC2)c1[N+](=O)[O-]`, the EC50 is reported as > 150 µM (not active).
In the case of `CN(Cc1ccc(OC(F)F)cc1)Cc1nc2c(Br)cc(Br)cc2c(=O)[nH]1`, the EC50 is reported as 29.4 µM (active).
With `O=C(Nc1nnc(-c2ccc(Br)cc2)o1)c1cccc(N2C(=O)CCC2=O)c1` the EC50 was > 150 µM (not active).
In the case of `COc1cccc(/C=N/n2c(N)nc3ccccc32)c1OC`, the EC50 is reported as > 150 µM (not active).
With `COC(=O)C1(C(C[N+](=O)[O-])c2ccc(C)cc2)C(=O)NCC1c1ccco1` (centres undefined) the EC50 was > 150 µM (inconclusive).
For `C/C(=N/NS(=O)(=O)c1ccc(Cl)cc1)c1cccc(NC(=O)c2ccc(Cl)cc2Cl)c1`, the EC50 was 23.4 µM (active).
In the case of `COc1cccc(C(=O)N2C(C(=O)O)CSC2c2ccccc2Cl)c1` (centres undefined), the EC50 is reported as > 150 µM (not active).
With `Cc1cc(C)n(-c2nc(SCC(=O)O)c3c4c(sc3n2)CCCC4)n1` the EC50 was > 150 µM (not active).
With `Cc1ccccc1N1CCN(C(=O)CCN2C(=O)c3ccccc3C2=O)CC1` the EC50 was > 150 µM (not active).

Tested on: Streptococcus sp. 'group A'
Test: growth inhibition of control SK(-) GAS strain, dose response, counter-screen for streptokinase expression inhibitor project, luminescence, kanamycin, BacTiterGlo, confirmation (AID 1900)
Type: functional, organism-based
Conditions: not given
In the case of `Cc1cccc(OCC(=O)Nc2ccncc2)c1`, the EC50 is reported as > 150 µM (not active).
For `O=C(CN1C(=O)COc2ccc(S(=O)(=O)N3CCCCC3)cc21)NCc1ccc(F)cc1`, the EC50 was > 150 µM (not active).
For `CC/C(=N\NC(=S)Nc1cccc(C)c1)c1ccccc1`, the EC50 was 12.3 µM (active).
For `COc1ccc2c(c1)c(CC(=O)Nc1cccc(S(N)(=O)=O)c1)c(C)n2C(=O)c1ccc(Cl)cc1`, the EC50 was 5.48 µM (active).
With `O=C(NCc1ccc2c(c1)OCO2)C(=O)NCC1OCCN1S(=O)(=O)c1ccc(Br)cc1` (centres undefined) the EC50 was > 150 µM (not active).
For `Nc1[nH]nc(C2CC2)c1N=Nc1ccc(Cl)c(Cl)c1`, the EC50 was 4.36 µM (active).
For `COc1ccc(/C=C/C(=O)NC(=S)NNC(=O)c2ccco2)cc1OC`, the EC50 was 3.65 µM (active).
For `CC(C)(O)c1[nH]c2cc(F)ccc2c1C(C)(C)O`, the EC50 was 2.05 µM (active).
With `Nc1nc(NCc2ccco2)nc(N2CCCCCC2)c1[N+](=O)[O-]` the EC50 was 2.82 µM (active).
For `O=C(Nc1nnc(-c2ccc(Br)cc2)o1)c1cccc(N2C(=O)CCC2=O)c1`, the EC50 was 4.43 µM (active).
With `COc1cccc(/C=N/n2c(N)nc3ccccc32)c1OC` the EC50 was > 150 µM (not active).
For `COC(=O)C1(C(C[N+](=O)[O-])c2ccc(C)cc2)C(=O)NCC1c1ccco1` (centres undefined), the EC50 was 8.44 µM (active).
With `C/C(=N/NS(=O)(=O)c1ccc(Cl)cc1)c1cccc(NC(=O)c2ccc(Cl)cc2Cl)c1` the EC50 was 3.99 µM (active).
For `COc1cccc(C(=O)N2C(C(=O)O)CSC2c2ccccc2Cl)c1` (centres undefined), the EC50 was > 150 µM (not active).
With `Cc1cc(C)n(-c2nc(SCC(=O)O)c3c4c(sc3n2)CCCC4)n1` the EC50 was 8.77 µM (active).
For `Cc1ccccc1N1CCN(C(=O)CCN2C(=O)c3ccccc3C2=O)CC1`, the EC50 was > 150 µM (not active).

Tested on: not listed separately
Test: cells
Type: functional
Conditions: not given
In the case of `O=C(COC(=O)c1cc(Br)ccc1Cl)NC1CCCC1`, the IC50 is reported as 18.2 µM (active).
For `O=C(COc1ccccc1)NCCSCc1ccc(Cl)cc1`, the IC50 was 22.2 µM (active).
